Assay results from patent US20220324770A1, “NITRIFICATION INHIBITORS” (The University of Melbourne, priority 2019, published 2022).

Experiments:
Dahlen soil = assay: Soil microcosm incubation (nitrification of applied ammonium), Dahlen soil; conditions: for Nitrified NH4+—N (%) Day 3 / Nitrified NH4+—N (%) Day 7 / Nitrified NH4+—N (%) Day 14 / Nitrified NH4+—N (%) Day 21 / Nitrified NH4+—N (%) Day 28: 10 mol %
Procedure: (§1) The soil used in this study was collected from four different locations in Victoria, Australia: (i) a wheat cropping soil from Horsham (36° 45′S, 142° 07′ E), (ii) a rotational cropping soil from Dahlen (36° 37′S, 142° 09′ E), (iii) a vegetable growing soil from Clyde (38° 08′S, 145° 20′ E), and (iv) a pasture soil from Terang (38° 15′S, 142° 52′E). In addition, a sugarcane cropping soil from South Johnstone in northern Queensland (17° 34′S, 145° 57′ E) was also studied. The water content of the soil was calculated before commencing each experiment, from samples that were oven-dried to constant weight. The soil's water-filled pore space (WFPS) was in the range 52%-61%, which is within the recommended 50-70% range for microbial activity due to oxygen and nutrient availability (Fichtner, T., et al., Applied Sciences, 2019, 9, 496).
(§2) Soil microcosm incubations were carried out in 250 ml polypropylene specimen containers (Sarstedt, Germany), containing 18.24 g oven dry-weight equivalent of soil. Microcosms were re-wetted and pre-incubated at the test temperature for seven days to revive soil microbial activity. Following pre-incubation, the remaining volume to reach the desired water-filled pore spaces (WFPS %) was applied as one of the following treatment solutions; (NH4)2SO4(Control), (NH4)2SO4+DMPP, or (NH4)2SO4+one of Compounds 1-23. Each treatment was applied in triplicate per soil type, so that n=3 at each time point.
(§3) Treatment solutions were prepared such that each microcosm received (NH4)2SO4 at a rate of 100 mg N per kg soil, Compounds 1-23 at 10 mol % of applied N, or DMPP at one of 1.5, 3.6 or 10 mol % of applied N, referred to as L-DMPP, M-DMPP or H-DMPP respectively.
(§4) The microcosms were incubated for 0, 3, 7, 14, 21 or 28 days, where day 0 samples were extracted following 1-hour incubation post-treatment. Soil microcosms were aerated and moisture levels were replenished based on weight loss every few days throughout the incubation period.
(§5) At the end of each incubation period, soil microcosms were destructively sampled by treatment with 2M KCl (100 mL). After shaking for 1 hour, soil-KCl solutions were filtered (Whatman 42) before storing the filtrates at −20° C. until the conclusion of the experiment. All KCl extracts were then analysed by Segmented Flow Analysis (San++, Skalar, Breda, The Netherlands) for the concentration of nitrogen from ammonium (NH4^+—N) and nitrogen from NO3 and NO2 (NOx^−—N) after appropriate dilutions. Results are reported as the mean of three replicates, errors reported are standard errors of the mean.
(§6) Nitrification calculations were performed as previously reported (Aulakh, M., et al., Biology and Fertility of Soils 2001, 33, 258-263; Mahmood, T., et al., Soil Research 2017, 55, 715-722) without correction for the initial baseline concentrations of NH4^+—N or NO3^− N in the untreated soil. For each treatment nitrified NH4^+—N (%) was calculated according to eqn. 1:
(§7) where [NH4^+—N]0 is the NH4^+—N concentration (in mg N kg^−1 soil) of the soil on day 0 and [NH4^+—N]t is the NH4^+—N concentration (in mg N kg^−1 soil) of the soil at a given time point t.
(§8) NOx^−—N accumulation rates (mg NOx^−—N/kg soil/day) over the 28-day incubation experiments were calculated for each treatment as in the following (eqn. 2):
(§9) [NOx^−—N]t=0 and [NOx^−—N]t=28 are the combined concentrations of nitrite (NO2) and nitrate (NO3) in the soil (in mg N kg^−1 soil) on day 0 and day 28, respectively.

Horsham soil = assay: Soil microcosm incubation (nitrification of applied ammonium), Horsham soil
Procedure: as §1, §2, §3, §4, §5, §6, §7, §8, §9

[1] = Dahlen soil, 35° C., after 28 days
[2] = Table 4, Dahlen soil pH 7.3, 25° C.
[3] = Table 4, Dahlen soil pH 7.3, 35° C.
[4] = Horsham soil pH 8.8, 25° C., inhibitors 10 mol % of applied N
[5] = Horsham soil pH 8.8, 25° C., 10 mol %
[6] = Horsham soil pH 8.8, 35° C., 10 mol %
[7] = Table 5, Dahlen soil pH 7.3, 25° C.
[8] = Table 5, Dahlen soil pH 7.3, 35° C.

C#CCCn1cc(CCC)nn1 [Compound 17, 1-(3-butyn-1-yl)-4-propyl-1H-1,2,3-triazole]
NOx−—N accumulation rate (Dahlen soil; Dahlen soil, 25° C., 28-day incubation): 4.7 mg NOx−—N/kg soil/day | retaining NH4+—N vs uninhibited control treatment and DMPP (Dahlen soil; Dahlen soil, 25° C., after 28 days): performed statistically better | NOx−—N accumulation rate: effect of temperature (25° C. vs 35° C.) (Dahlen soil; Dahlen soil, 28-day incubation): largest reduction in the accumulation rate | NOx−—N accumulation rate (Dahlen soil; Dahlen soil, 35° C., 28-day incubation): 2.4 mg NOx−—N/kg soil/day | ammonia consumption (Dahlen soil; [1]): 38% | retaining NH4+ vs both DMPP treatment and control treatment (Dahlen soil; [1]): performed statistically better | Nitrified NH4+—N (%) Day 3 (Dahlen soil; [2]): 3.0 ± 1.3% | Nitrified NH4+—N (%) Day 7 (Dahlen soil; [2]): 10.4 ± 3.6% | Nitrified NH4+—N (%) Day 14 (Dahlen soil; [2]): 12.1 ± 3.2% | Nitrified NH4+—N (%) Day 21 (Dahlen soil; [2]): 22.2 ± 5.0% | Nitrified NH4+—N (%) Day 28 (Dahlen soil; [2]): 36.4 ± 6.8% | Nitrified NH4+—N (%) Day 3 (Dahlen soil; [3]): 6.3 ± 2.2% | Nitrified NH4+—N (%) Day 7 (Dahlen soil; [3]): 8.8 ± 1.9% | Nitrified NH4+—N (%) Day 14 (Dahlen soil; [3]): 17.7 ± 2.6% | Nitrified NH4+—N (%) Day 21 (Dahlen soil; [3]): 38.0 ± 2.8% | Nitrified NH4+—N (%) Day 28 (Dahlen soil; [3]): 37.6 ± 3.1% | Nitrified NH4+—N (%) Day 3 (Horsham soil; [4]): 13.5 ± 4.7% | Nitrified NH4+—N (%) Day 7 (Horsham soil; [5]): 30.6 ± 5.5% | Nitrified NH4+—N (%) Day 14 (Horsham soil; [5]): 35.1 ± 5.1% | Nitrified NH4+—N (%) Day 21 (Horsham soil; [5]): 43.9 ± 5.7% | Nitrified NH4+—N (%) Day 28 (Horsham soil; [5]): 65.8 ± 5.2% | Nitrified NH4+—N (%) Day 3 (Horsham soil; [6]): −0.8 ± 3.4% | Nitrified NH4+—N (%) Day 7 (Horsham soil; [6]): 8.5 ± 2.8% | Nitrified NH4+—N (%) Day 14 (Horsham soil; [6]): 37.2 ± 2.3% | Nitrified NH4+—N (%) Day 21 (Horsham soil; [6]): 75.7 ± 5.4% | Nitrified NH4+—N (%) Day 28 (Horsham soil; [6]): 76.2 ± 2.1% | retaining NH4+ vs uninhibited control treatment (Horsham soil; Horsham soil, 25° C., after 28 days): performed statistically better | nitrification rates vs uninhibited control treatment (Horsham soil; Horsham soil, 35° C.): lower nitrification rates than the uninhibited control treatment

CCCCc1cn(CCOC)nn1 [Compound 14, 1-(2-methoxyethyl)-4-butyl-1H-1,2,3-triazole]
Nitrified NH4+—N (%) Day 3 (Horsham soil; [4]): 23.8 ± 3.0% | Nitrified NH4+—N (%) Day 7 (Horsham soil; [5]): 38.7 ± 5.3% | Nitrified NH4+—N (%) Day 14 (Horsham soil; [5]): 84.3 ± 5.6% | Nitrified NH4+—N (%) Day 21 (Horsham soil; [5]): 93.4 ± 6.2% | Nitrified NH4+—N (%) Day 28 (Horsham soil; [5]): 100 ± 3.2% | Nitrified NH4+—N (%) Day 3 (Horsham soil; [6]): 13.2 ± 5.4% | Nitrified NH4+—N (%) Day 7 (Horsham soil; [6]): 15.7 ± 5.7% | Nitrified NH4+—N (%) Day 14 (Horsham soil; [6]): 39.8 ± 6.6% | Nitrified NH4+—N (%) Day 21 (Horsham soil; [6]): 83.5 ± 7.2% | Nitrified NH4+—N (%) Day 28 (Horsham soil; [6]): 79.7 ± 9.4% | NOx−—N accumulation: effect of temperature (25° C. vs 35° C.) (Horsham soil; Horsham soil, 28-day incubation): lower at the elevated temperature

C#CCNC(=O)Cn1cc(CCC)nn1 [Compound 23, prop-2-yn-1-yl 2-(4-propyl-1H-1,2,3-triazol-1-yl)-acetamide]
retaining NH4+—N levels by day 28 vs fertilised control (and DMPP) (Dahlen soil; Dahlen soil, 25° C., Table 5 test): performed statistically better | Nitrified NH4+—N (%) Day 3 (Dahlen soil; Table 5 (further comparative test), Dahlen soil pH 7.3, 25° C.): 4.8 ± 2.9% | Nitrified NH4+—N (%) Day 7 (Dahlen soil; [7]): 15.7 ± 1.5% | Nitrified NH4+—N (%) Day 14 (Dahlen soil; [7]): 30.3 ± 0.8% | Nitrified NH4+—N (%) Day 21 (Dahlen soil; [7]): 35.9 ± 1.2% | Nitrified NH4+—N (%) Day 28 (Dahlen soil; [7]): 60.5 ± 1.0% | Nitrified NH4+—N (%) Day 3 (Dahlen soil; [8]): 15.6 ± 6.4% | Nitrified NH4+—N (%) Day 7 (Dahlen soil; [8]): 8.8 ± 5.6% | Nitrified NH4+—N (%) Day 14 (Dahlen soil; [8]): 24.0 ± 6.7% | Nitrified NH4+—N (%) Day 21 (Dahlen soil; [8]): 41.7 ± 4.7% | Nitrified NH4+—N (%) Day 28 (Dahlen soil; [8]): 64.6 ± 4.9%
